{"source": "patent US20250188169A1", "about": "“METHOD FOR TREATING CLONAL HEM[…] DISORDERS” (THE CHILDREN'S MEDICAL CENTER CORPORATION, priority 2022, published 2025)", "key": {"asxl1-mutant clones": {"test_system": "asxl1-mutant clones", "test": "asxl1-mutant clonal dynamics in peripheral blood of mosaic asxl1-mutant zebrafish (VAF by sequencing)", "type": "in vivo", "description": "(§1) Zebrafish were generated with mosaic mutations in asxl1 using the TWISTR method (Avagyan et a1 Science 2021, PMID 34735227). Briefly, they were injected with guide-RNAs targeting asxl1 gene with Cas9 mRNA into 1-cell embryos of zebrafish, and grown to adulthood. At 3 months retroortibital bleeding was performed on the adult zebrafish and measure the size of the mutant clones in the peripheral blood by sequencing the genomic DNA at the targeting locus of asxl1. Zebrafish with at least 1 mutant allele of 5% of greater allele size were chosen for the cohorts, randomly assigned to be treated with either DMSO or NR4A1 inhibitor (DIM-C). The dose of DIM-C was determined in a previously conducted pilot experiment. Zebrafish with mosaic mutations in asxl1 are treated with either DMSO or an NR4A1 inhibitor (DIM-C) and analyzed over a three-month period. Peripheral blood was collected every month to determine the size of the mutant clones over time. […] RO=retro-orbital bleed, RO1=first RO, pre-treatment, RO2 through RO4=monthly RO bleeds following treatment.\nClonal hematopoiesis. Zebrafish were generated with mosaic mutations in asxl1 using the TWISTR method (Avagyan et a1 Science 2021, PMID 34735227). Briefly, they were injected with guide-RNAs targeting asxl1 gene with Cas9 mRNA into 1-cell embryos of zebrafish, and grown to adulthood. At 3 months retroortibital bleeding was performed on the adult zebrafish and the size of the mutant clones in the peripheral blood was measured by sequencing the genomic DNA at the targeting locus of asxl1. Zebrafish with at least 1 mutant allele of 5% of greater allele size were chosen for the cohorts, randomly assigned to be treated with either DMSO or NR4A1 inhibitor (DIM-C). Zebrafish with mosaic mutations in asxl1 were treated with either DMSO or an NR4A1 inhibitor (DIM-C) and analyzed over a three-month period. Peripheral blood was collected every month to determine the size of the mutant clones over time.\nIt was previously shown by early genetic targeting nr4a1 during development prevented clonal growth of mutant cells. Next, the hypothesis that pharmacologic inhibition of nr4a1 would halt or reduce mutant clonal growth over time was tested (FIG. 1). To test this hypothesis, a cohort of asxl1 mutant zebrafish were generated and screened for the presence of asxl1 mutant clone at at least 5% VAF in peripheral blood. The positively screened mutant fish were then treated either with DMSO or minimally toxic dose of DIM-c (Tocris compound) at 9.5 uM concentration overnight, between 14-16 hours long, 5 days of the week for 6 months. Peripheral blood from both groups was collected by retroorbital bleeding every month for measurement of the mutant clones in the blood by next generation sequencing (FIG. 2). N=are the numbers of fish at the initiation of treatment. A more detailed experimental schema with exact dates in order to calculate exact ages of the fish or post treatment timepoints is shown in FIG. 10."}, "zebrafish": {"test_system": "zebrafish", "test": "Tolerability and survival of treated asxl1-mutant zebrafish", "type": "in vivo", "settings": "over the three-month treatment period", "description": "as §1\nIt was previously shown by early genetic targeting nr4a1 during development prevented clonal growth of mutant cells. […]\nFIG. 11 examines the survival curve of the fish in two cohorts. […] Additionally, marrow cellular composition was analyzed at 8 months post treatment by flow cytometry."}, "[1]": {"test_system": "marrow myelomonocytes, lymphocytes and progenitor/precursors", "test": "Marrow cellular composition by flow cytometry", "type": "in vivo, zebrafish", "settings": "8 months post treatment", "description": "FIG. 11 examines the survival curve of the fish in two cohorts. An event was finding the fish dead or moribund after overnight treatment; no fish died during the day or off treatment days or as a consequence of retroorbital bleeding. No statistical difference was found with p values >0.05 by two different tests between the groups. 17 DMSO and 13 DIMC fish were left for final analysis. Additionally, marrow cellular composition was analyzed at 8 months post treatment by flow cytometry."}}, "note": "“Also recorded” adds a separate entry of the source.", "data": [{"smiles": "Oc1ccc(C(c2c[nH]c3ccccc23)c2c[nH]c3ccccc23)cc1", "note": "[DIM-C, 1,1-bis(3′-indolyl)-1-(p-hydroxyphenyl)methane]", "values": [{"measurement": "change in asxl1 frameshift indel containing clone size compared to 0 (Wilcoxon rank test)", "setting": "asxl1-mutant clones; DIM-C treated zebrafish, three-month period, null hypothesis: no change", "result": "no significant change"}, {"measurement": "change of asxl1-mutant clones with non-frameshift indels over time", "setting": "asxl1-mutant clones; DIM-C treatment, three-month period, peripheral blood", "result": "similarly unchanged over time; also recorded: did not change significantly over time"}, {"measurement": "expansion of asxl1-mutant clones with frameshift indels (VAF over time)", "setting": "asxl1-mutant clones; DIM-C vs DMSO, three-month period, monthly retro-orbital bleeds, peripheral blood", "result": "less pronounced and plateaus by 3 months; also recorded: less expansion of asxl1-mutant clones"}, {"measurement": "asxl1-mutant clonal expansion, clones with frameshift and non-frameshift indels, all zebrafish", "setting": "asxl1-mutant clones; DIM-C, all zebrafish (n=12), three-month period", "result": "significantly abated asxl1-mutant clonal expansion"}, {"measurement": "change in size of the largest clone over treatment", "setting": "asxl1-mutant clones; DIMC treatment arm, compared to 0 (no change over time), one sample t and Wilcoxon test", "result": "had not changed significantly"}, {"measurement": "percent change of clone size (VAF at RO4 compared to VAF at RO1), frameshift-indel clones, compared to DMSO", "setting": "asxl1-mutant clones; three-month period, clones with VAF of 5% or greater in at least 1 time point", "result": "significantly less expansion"}, {"measurement": "physical abnormalities in treated zebrafish", "setting": "zebrafish", "result": "No physical abnormalities were observed"}, {"measurement": "marrow cellular composition, difference between treatment groups", "setting": "[1]", "result": "no difference between the treatment groups"}]}]}
